ChEMBL document CHEMBL1148194, “Dysinosins B-D, inhibitors of factor VIIa and thrombin from the Australian sponge Lamellodysidea chlorea” (J Nat Prod, 2004)
pKi: −log10 of the molar value.

Tests used:
Prothrombin = Prothrombin (Homo sapiens, UniProt P00734); assay: Inhibition of thrombin by spectrophotometric assay
Coagulation factor VII = target: T1, Coagulation factor VII (Homo sapiens, UniProt P08709); assay: Inhibition of factor 7a by spectrophotometric assay
T1 sequence (P08709 whole entry): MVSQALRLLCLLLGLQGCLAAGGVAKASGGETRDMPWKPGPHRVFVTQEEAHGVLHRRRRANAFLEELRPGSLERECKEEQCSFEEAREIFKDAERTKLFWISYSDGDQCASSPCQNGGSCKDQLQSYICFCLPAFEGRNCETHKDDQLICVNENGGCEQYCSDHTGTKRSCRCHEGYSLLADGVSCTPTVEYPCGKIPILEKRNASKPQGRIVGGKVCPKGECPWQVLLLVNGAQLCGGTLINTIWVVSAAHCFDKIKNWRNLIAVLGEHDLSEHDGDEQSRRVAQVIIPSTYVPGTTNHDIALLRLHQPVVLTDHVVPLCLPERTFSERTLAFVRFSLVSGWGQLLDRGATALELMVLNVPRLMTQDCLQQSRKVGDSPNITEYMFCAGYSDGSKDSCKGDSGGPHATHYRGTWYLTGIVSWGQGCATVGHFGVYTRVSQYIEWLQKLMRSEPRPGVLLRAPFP

pKi (Prothrombin) | pKi (Coagulation factor VII) | Compound
6.34 | 6.97 | CO[C@H](COS(=O)(=O)[O-])C(=O)N[C@H](CC(C)C)C(=O)N1[C@H](C(=O)NCCC2=CC[N+](=C(N)N)C2)C[C@@H]2C[C@H](O)[C@@H](O)C[C@@H]21 [DYSINOSIN A]
6.77 | 7.05 | CO[C@H](COS(=O)(=O)[O-])C(=O)N[C@H](C(=O)N1[C@H](C(=O)NCCC2=CC[N+](=C(N)N)C2)C[C@@H]2C[C@H](O)[C@@H](O[C@H]3O[C@H](CO)[C@@H](O)[C@H](O)[C@H]3O)C[C@@H]21)C(C)C [DYSINOSIN B]
6.26 | 6.91 | CO[C@H](COS(=O)(=O)[O-])C(=O)N[C@H](C(=O)N1[C@H](C(=O)NCCC2=CC[N+](=C(N)N)C2)C[C@@H]2C[C@H](O)[C@@H](O)C[C@@H]21)C(C)C [DYSINOSIN C]
< 5.29 | 5.88 | CO[C@H](CO)C(=O)N[C@H](C(=O)N1[C@H](C(=O)NCCC2=CC[N+](=C(N)N)C2)C[C@@H]2C[C@H](O)[C@@H](O)C[C@@H]21)C(C)C [DYSINOSIN D]
